We go through four compounds from patent US20080108633A1, “Use 540” (AstraZeneca AB, priority 2006, published 2008).

The subject of assay [1] is carrageenan-induced monoarthritis in rat. Put plainly: Monoarthritis induced by carrageenan, Paw Print setup (hindpaw weight-bearing, "Walking pain"). In kind it is in vivo. The settings on record: for difference in weight bearing between the hind paws: three hours after carrageenan (two hours after administration), vehicle group 30.2±3.2%, mean ±SEM, n=8. The method, then: The compounds used according to the invention when given by systemic administration to mice or rats, specifically reduce pain in the rat carrageenan test as described by Tonussi and Ferreira (Pain 1992, 48, 421-427). One single injection of carrageenan directly into the rat knee joint produces symptoms peaking at 3 to 4 hours and lasting for one to two days, and which are sensitive to treatment by most anti-nociceptive drugs (Tonussi and Ferreira, Pain 1992, 48, 421-427). Under isoflurane anesthesia, 50 μL of carrageenan (7.5 mg/mL) was injected into the left tibio-tarsal (ankle) joint from the dorsal side. This injection causes a localized inflammation increasing to a maximum between 4 h to 8 h after induction, after which it gradually decreases, and the animals display decreased weight bearing on and guarding of the limb. The Paw Print walkway consists of a 100×10 cm path with an access point at one short end and an exit at the other, and the rats are trained to make a swift, continuous passage. The walkway has a glass floor where light is projected into one long edge via fiber optics. Projecting the light in this fashion allows for virtually complete internal reflection within the glass floor. Only where an object touches the glass, such as the placement of a rat paw, light is scattered at the point of contact and produces an illuminated print (Betts, Duckworth, Eng. Med. 1978, 7, 223-228) that is recorded by a wide-angle camera placed under the walkway. The light intensity (range 0-255) of the illumination depends on the degree of contact against the floor and increases with the applied pressure (Clarke, Physiology & Behavior 1995, 58, 415-419). The Paw Print setup is a modified version of the CatWalk introduced by […], van Laar, Veldhuis, Gispen (J. Neurotrauma 2001, 18, 187-201), and has a computerized gait detection algorithm extracting several parameters pertaining to the rat's gait pattern and weight-bearing. The animals were trained to cross the walkway twice, one and two days before induction of monoarthritis. Recordings were subsequently made on the day of testing, immediately before, and three and five hours after carrageenan injection, corresponding to two and four hours after per oral administration of test compound. The following parameters were used for analysis: Weight-bearing per paw=The total sum of maximum light intensities for all pixels in the print of one paw is multiplied by the number of pixels of the print area. A paw placement consists of a number of pixels with light intensity above a certain threshold value (80 in this study). During the time course of one paw placement, a maximum value of light intensity is recorded for each pixel. Based on the weight-bearing results, the Paw Print algorithm chooses the median print per paw in one walkway crossing. The median weight-bearing of each paw constitutes a percentage of the sum of all four paws' median weight-bearing results. The difference in percent weight-bearing between the two hind paws is shown (“Walking pain”). The test compounds were administered 60 min after induction of monoarthritis. […] Results were analysed using 1-Way ANOVA followed by Newman-Keuls for comparison between treatment groups for data obtained at each time-point after administration. The level of significance was set at p<0.05 (SigmaStat® 2.03).
On the technique in general: In the carrageenan paw model, swelling and tenderness develop within hours.

Another assay has as its target T1, human Trk A kinase (Homo sapiens, UniProt P04629).
T1 construct: HIS; made in house; host or cells: SF9 cells
Put plainly: Trk A kinase assay (Alphascreen). In kind it is biochemical. The settings on record: 70 μM ATP, 20 minutes, room temperature. The method, then:
After incubation of the kinase with a biotinylated substrate and adenosine triphosphate (ATP) for 20 minutes at room temperature, the kinase reaction was stopped by the addition of 30 mM ethylenediaminetetraacetic acid (EDTA). The reaction was performed in 384 well microtitre plates and the reaction products were detected with the addition of strepavidin coated Donor Beads and phosphotyrosine-specific antibodies coated Acceptor Beads using the EnVision Multilabel Plate Reader after an overnight incubation at room temperature.
(Bead proximity is the source of the signal in Alpha formats.)

The structures appear in SMILES notation.

T1 sequence (P04629 442-796): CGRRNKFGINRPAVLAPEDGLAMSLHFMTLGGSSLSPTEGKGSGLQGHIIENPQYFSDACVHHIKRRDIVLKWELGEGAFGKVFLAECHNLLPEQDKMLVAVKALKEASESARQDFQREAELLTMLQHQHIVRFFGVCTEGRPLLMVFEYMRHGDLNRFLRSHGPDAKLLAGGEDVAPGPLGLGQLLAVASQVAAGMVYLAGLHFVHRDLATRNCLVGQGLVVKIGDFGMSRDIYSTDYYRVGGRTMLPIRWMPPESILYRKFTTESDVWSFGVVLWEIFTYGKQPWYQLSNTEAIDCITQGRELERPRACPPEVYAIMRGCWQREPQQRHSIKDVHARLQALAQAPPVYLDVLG

With `CC(C)Oc1cc(Nc2nc(N[C@@H](C)c3ccc(F)cn3)ncc2Cl)n[nH]1` [5-Chloro-N^2-[(1S)-1-(5-fluoropyridin-2-yl)ethyl]-N^4-(5-isopropoxy-1H-pyrazol-3-yl)pyrimidine-2,4-diamine], the “difference in weight bearing between the hind paws” value in assay [1] (30 μmol/kg per oral) was determined as 9.2±4.0%; in assay [1] (120 μmol/kg per oral), 14.9±4.4%. In addition, the “effect on the inflammatory pain induced by intra-articular ankle injection of carrageenan” value in assay [1] (all doses (30 μmol/kg, 60 μmol/kg p.o.)) was “significant effect”. In addition, the “hindpaw weight distribution compared to the vehicle group” value in assay [1] (all three doses 30, 60 and 120 μmol/kg per oral, both at two and four hours after administration, p<0.05) is given as “significantly reduced”. Also, the “dose dependence of the effect on hindpaw weight distribution” value in assay [1] (dose interval tested, 30-120 μmol/kg per oral) is “no apparent dose dependence”.
In general, IC50 refers to the concentration needed to halve the response being measured. Higher therefore signals weaker potency in that assay. `C[C@H](Nc1ncc(Br)c(Nc2cc(C3CC3)[nH]n2)n1)c1ccc(F)cn1` [(S)-5-Bromo-N^4-(5-cyclopropyl-1H-pyrazol-3-yl)-N^2-(1-(5-fluoropyridin-2-yl)ethyl)pyrimidine-2,4-diamine] came in with an IC50 on human Trk A kinase of 5 nM.
In turn, `C[C@H](Nc1ncc(Cl)c(Nc2cc(C3CC3)[nH]n2)n1)c1ccc(F)cn1` [(S)-5-Chloro-N^4-(5-cyclopropyl-1H-pyrazol-3-yl)-N^2-(1-(5-fluoropyridin-2-yl)ethyl)pyrimidine-2,4-diamine] yielded an IC50 against human Trk A kinase of 8 nM.
Turning to `C[C@H](Nc1ncc(F)c(Nc2cc(C3CC3)[nH]n2)n1)c1ccc(F)cn1` [(S)-5-Fluoro-N^4-(5-cyclopropyl-1H-pyrazol-3-yl)-N^2-(1-(5-fluoropyridin-2-yl)ethyl)pyrimidine-2,4-diamine], at human Trk A kinase, it took 10 nM to reach half-maximal inhibition (IC50).
